Measurements published in patent US20240336653A1, “PEPTIDE COMPOUND TARGETING ELASTIN-DERIVED PEPTIDES AND USE THEREOF” (Shenzhen Turier Biotech Co., Ltd., priority 2020, published 2024).
*1 amine or outer side, *2 acyl side, *3 side chain or, on linkers, in order; H or OH if unused. Primed or numbered codes have the meaning given here. Where no end group is shown, it is not given here. [ ]: non-standard residue; d: D form. The star is where a group is joined. C20 diacid = O=C(O)CCCCCCCCCCCCCCCCCCC(=O)*; γGlu = O=C(O)[C@H](CCC(=O)[*:2])N[*:1]; Iva = CC[C@](C)(N)C(=O)O; PEG2′ = not defined here

Experiments:
[1] = tested on: CCl4 induced hepatic fibrosis; test: Carbon tetrachloride (CCl4) induced hepatic fibrosis model in mice; type: in vivo, C57BL/6J mice; conditions: 100.0 μg/kg intraperitoneal, 3 weeks of administration; for aggregation of inflammatory cells in the liver (HE staining) / hepatic fibrosis of mice: FIG. 2; for expression of Collagen I in the liver (immunohistochemistry): FIG. 3; for collagen deposition in the liver (Sirius red staining): FIG. 4
Experimental: Molding method: 72 male C57BL/6J mice, male, 18-22 g in weight and 8 weeks old, provided by Laboratory Animal Center, Sun Yat-sen University, randomly divided into 12 groups: 1) control group (Oil)+saline, intraperitoneal injection, n=6; 2) model control group (CCl4)+saline, intraperitoneal injection, n=6; administration of CCl4 to mice once every three days for 6 weeks; 3) model administration group (CCl4)+100.0 μg/kg series of compounds (group 10), intraperitoneal injection, n=6/group. The mice in the control group are injected with corn oil at the same volume and frequency according to the administration volume of 20% CCl4 at the weight of 5.0 μL/g. Administration frequency: administration of CCl4 to mice once every three days for 6 weeks. After 3 weeks of administration of CCl4 to mice in the model administration group, peptide compounds 1, 5, 7, 11, 12, 13, 17, 18, 21 and 22 are administered for 3 weeks from the 4th week. CCl4 and Oil are purchased from Shanghai Aladdin Biochemical Technology Co., Ltd.
In the CCl4 induced hepatic fibrosis model, the manifestations are: inflammatory cell infiltration around the central vein area, hydropic degeneration of hepatic cells, and increased accumulation of collagen fibers in the portal area and the hepatic interlobular septum. After three weeks of administration, the mice are treated and sampled. Blood is taken from the retrobulbar vein for detection of serological indicators, and liver tissue is taken for pathological analysis.
(§1) Hematoxylin-eosin (H&E) staining: paraffin embedded tissue sections are taken and baked at 60° C. for 1 h. Dewaxing and hydration: xylene for 20 minutes→xylene for 20 minutes→absolute alcohol for 15 minutes→absolute alcohol for 15 minutes→95% alcohol for 10 minutes→90% alcohol for 5 minutes→80% alcohol for 5 minutes. Staining: hematoxylin for 7 minutes→rinsing with tap water→differentiation with 1% hydrochloric acid alcohol for 1 s→rinsing with tap water→eosin staining for 15 s-20 s→rinsing with tap water. Dehydration and transparency: 75% alcohol for 1 s→85% alcohol for 1 s→95% alcohol for 1 s→100% alcohol for 1 s→xylene for Is→xylene for 1 s. The sections are aired for 30 minutes and sealed with gum.
Sirius red staining: drying and dewaxing; standing for 5.0 minutes in double distilled water; Sirius red staining for 60-80 minutes in a dark room; washing for 5 s with 0.5% glacial acetic acid; dehydration and transparency, sealing and taking photos.
Immunohistochemistry: drying sections, dewaxing, and then soaking in double distilled water for 5 minutes. Antigen retrieval: putting the shelf where pathological sections are placed into a beaker containing citric acid buffer (PH=6.0), and keeping it under high temperature and pressure for 15 minutes; taking out the beaker and letting it stand at room temperature until the temperature drops to the room temperature, then taking out the sections and putting them into 3.0% hydrogen peroxide for 10 minutes to block the endogenous peroxidase activity, and then washing them with PBS for three times, 5 minutes each time; sealing the tissues with 1.0% BSA for 1 h; removing 1.0% BSA, adding Collagen I antibody on the tissue according to the proportion recommended in the Description, and staying overnight at 4° C.; taking out the pathological sections next day, adding the second antibody with horseradish peroxidase after the room temperature is restored, incubating it at 37° C. for 60 minutes, and then use DAB (diaminobenzidine) ([…], USA) to develop color; and re-staining with hematoxylin staining solution, washing with tap water for 5 minutes, differentiating with 1% hydrochloric acid alcohol, then washing with tap water for 5 minutes again, dehydrating, airing, sealing, and taking photos (H&E staining solution and Sirius red staining solution are purchased from Sangon Biotech (Shanghai) Co., Ltd., and Collagen I antibody is purchased from CST Corporation).

MMP9 = test: ELISA of MMP9 in serum of mice of the bleomycin model; type: in vivo, C57BL/6J mice; conditions: BLM mice, 150 μg/kg daily intraperitoneal, 14 days, FIG. 6-A
Experimental: (§2) Molding method: 78 male C57BL/6J mice, 16-18 g in weight and 6-8 weeks old, provided by Laboratory Animal Center, Sun Yat-sen University, randomly divided into 13 groups: 1) normal control group (Normal), n=6; 2) sham-operated saline control group (Saline), n=6; 3) bleomycin model group (BLM), n=6; and 4) model treatment group: administration of 150 μg/kg series compounds to mice, 10 groups in total, n=6/group. On the 7th day after the operation of bleomycin induced pulmonary fibrosis in mice, mice in the model treatment group are treated with drugs (administration frequency: daily administration/150 μg/kg, intraperitoneal injection). Samples are taken 14 days after administration, and pathological observations are recorded.
(§3) The bleomycin (purchased from TCI Shanghai)) induced pulmonary fibrosis model manifests the following pathological features: bronchiectasis, hydropic degeneration of bronchial epithelial cells, obvious edema and widening of alveolar interstitium, and deposition of a large number of fibroblasts and collagen tissue. The alveolar structure almost completely disappears, filled with fibrous connective tissue, and accompanied by inflammatory cell infiltration. After 14 days of administration, the mice in the model treatment group are treated and sampled. Blood is taken from the retrobulbar vein for detection of serological indicators, and […] is taken for pathological analysis.
(§4) The occurrence and development of fibrotic diseases are related to TGF-β and MMP-9 induced EMT process. Matrix metalloproteinases (MMPs) are matrix degrading proteases that degrade all components of extracellular matrix. They participate in the pathophysiological process of pulmonary fibrosis, play an important role in the abnormal remodeling of extracellular matrix and destruction of basement membrane, and promote the recruitment of inflammatory cells and fibroblasts. The increased expression of MMP-9 in pulmonary fibrosis animal models and patients, higher than the normal MMP-9 level, may destroy normal tissue structure and increase the migration of inflammatory cells to the disease site. In order to further explore the inhibitory mechanism of polypeptide drugs on bleomycin induced pulmonary fibrosis, we detect the expression of TGFβ, MMP9 cell factors in serum of mice in each group by ELISA. […] We speculate that its mechanism should be related to TGF-β.

[2] = tested on: bleomycin induced pulmonary fibrosis; test: Bleomycin (BLM) induced pulmonary fibrosis model in mice; type: in vivo, C57BL/6J mice; conditions: 150 μg/kg daily intraperitoneal, 14 days, FIG. 5; for degree of pulmonary fibrosis (H&E staining and Masson staining): compared with bleomycin control group; for fibronectin in pulmonary parenchyma (α-SMA and Collagen1 immunohistochemistry): compared with bleomycin group
Experimental: as §2, §3
as §1, with “H&E” for “Hematoxylin-eosin (H&E)”, “1 s→xylene” for “Is→xylene”
Masson staining: drying and dewaxing; mordanting; adding celestine blue staining solution for 2-3 min, and washing with water; adding Mayer hematoxylin staining solution and washing with water; differentiating with acid alcohol differentiation liquid for several seconds, and washing with tap water; adding ponceau magenta staining solution and washing with distilled water; treating with phosphomolybdic acid solution; adding aniline blue staining solution for 5 min; treating with weak acid solution for 2 min; dehydration and transparency, airing and sealing with gum.
Immunohistochemistry: drying sections, dewaxing, and then soaking in double distilled water for 5 minutes. […]

LX2 cells = test: Activity evaluation in LX2 cell model (α-SMA protein expression); type: cell-based, human; conditions: 1.0 μM and 10.0 μM, 48 hours incubation, GAPDH internal reference, FIG. 1
Text: In LX2 cell model (which can be directly used as the evaluation model of hepatic fibrosis cells in vitro, because LX2 cells are human liver activated stellate cells. The LX2 cells are purchased from China Center for Type Culture Collection of the Chinese Academy of Sciences, Shanghai, China), the anti-fibrosis activities of peptide compounds 1-25 are preliminarily screened, and the expression of the marker α-SMA protein of myofibroblast activation is detected. The peptide compounds 1-25 is subjected to cell incubation for 48 hours by using two concentrations (1.0 μM and 10.0 μM). The control group is given the same volume of Dulbecco's modified Eagle medium (DMEM) (purchased from Gibco in the United States), and GAPDH (purchased from TransGen Biotech) as the internal reference, α-actin (α-SMA) is a symbolic feature that distinguishes myoblast cells from myofibroblasts.

TGF-β = test: ELISA of TGFβ in serum of mice of the bleomycin model; type: in vivo, C57BL/6J mice; conditions: BLM mice, 150 μg/kg daily intraperitoneal, 14 days, FIG. 6-B
Experimental: as §2, §3, §4

Row | Substance | aggregation of inflammatory cells in the liver (HE staining) [1] | hepatic fibrosis of mice [1] | expression of Collagen I in the liver (immunohistochemistry) [1] | collagen deposition in the liver (Sirius red staining) [1] | concentration of MMP9 in serum of mice (MMP9) | degree of pulmonary fibrosis (H&E staining and Masson staining) [2] | fibronectin in pulmonary parenchyma (α-SMA and Collagen1 immunohistochemistry) [2] | inhibiting and improving the activity of α-SMA (expression of α-SMA protein) (LX2 cells) | concentration of TGF-β in serum of mice (TGF-β)
1 | (PEG2-PEG2-γGlu-CO(CH2)18CH3)-Val-Iva-Gly-Ser-Pro-Ser-Ala-Gln-Glu-Glu-Ala-Ser-Pro-Ala-NH2 (V[Iva]GSPSAQEEASPA-NH2; not fully specified (N-terminus); printed as (PEG2-PEG2-γGlu-CO(CH2)18CH3)-Val-Iva-Gly-Ser-Pro-Ser-Ala-Gln-Glu-Glu-Ala-Ser-Pro-Ala-NH2) [Compound 13] | significantly improved | significantly improved | significant therapeutic improvement | significant therapeutic improvement | significantly reduce | significantly reduced | significantly less than that in bleomycin group | better effects on inhibiting and improving the activity of α-SMA | significantly reduce
2 | (PEG2-PEG2-γGlu-CO(CH2)18CO2H)-Val-Iva-Gly-Ser-Pro-Ser-Ala-Gln-Asp-Glu-Ala-Ser-Pro-Ala-NH2 ({C20 diacid-γGlu-PEG2′-PEG2′}-V[Iva]GSPSAQDEASPA-NH2) [Compound 5] | significantly improved | significantly improved | significant therapeutic improvement | significant therapeutic improvement | significantly reduce | significantly reduced | significantly less than that in bleomycin group | better effects on inhibiting and improving the activity of α-SMA | significantly reduce
3 | (PEG2-PEG2-γGlu-CO(CH2)18CO2H)-Val-Iva-Gly-Ser-Pro-Ser-Ala-Gln-Glu-Glu-Ala-Ser-Pro-Ala-NH2 ({C20 diacid-γGlu-PEG2′-PEG2′}-V[Iva]GSPSAQEEASPA-NH2) [Compound 7] | significantly improved | significantly improved | significant therapeutic improvement | significant therapeutic improvement | significantly reduce | significantly reduced | significantly less than that in bleomycin group | better effects on inhibiting and improving the activity of α-SMA | significantly reduce
4 | (PEG2-PEG2-γGlu-CO(CH2)18CO2H)-Val-Iva-Gly-Ser-Pro-Ser-Ala-Gln-Glu-Glu-Ala-Ser-Pro-Leu-NH2 ({C20 diacid-γGlu-PEG2′-PEG2′}-V[Iva]GSPSAQEEASPL-NH2) [Compound 11] | significantly improved | significantly improved | significant therapeutic improvement | significant therapeutic improvement | significantly reduce | significantly reduced | significantly less than that in bleomycin group | better effects on inhibiting and improving the activity of α-SMA | significantly reduce
5 | (PEG2-PEG2-γGlu-CO(CH2)18CO2H)-Val-Val-Gly-Ser-Pro-Ser-Ala-Gln-Asp-Glu-Ala-Ser-Pro-Leu-NH2 ({C20 diacid-γGlu-PEG2′-PEG2′}-VVGSPSAQDEASPL-NH2) [Compound 1] | significantly improved | significantly improved | significant therapeutic improvement | significant therapeutic improvement | significantly reduce | significantly reduced | significantly less than that in bleomycin group | better effects on inhibiting and improving the activity of α-SMA | significantly reduce
